What all share (assay): growth of human tumour cells (NCI), 48 h
The subject of experiment [1] is BT-549.
For experiment [2], the system named is HCT-116.
For experiment [3], the system named is HOP-62.
The subject of experiment [4] is HOP-92.
Experiment [5] deals with IGROV-1.
Experiment [6] deals with K562.
Experiment [7] concerns KM12.
Experiment [8] deals with M14.
In experiment [9] the test system is MDA-N.
Experiment [10] relates to NCI-H226.
In experiment [11] the test system is NCI-H522.
Experiment [12] concerns OVCAR-4.
Experiment [13] concerns OVCAR-8.
Experiment [14] relates to PC-3.
In experiment [15] the test system is SF-268.
The test system of experiment [16] is SF-295.
For experiment [17], the system named is SK-MEL-2.
For experiment [18], the system named is SK-OV-3.
Experiment [19] deals with U-251.
For experiment [20], the system named is UO-31.

Nine molecules from ChEMBL document CHEMBL1201862, “PubChem BioAssay data set” (2004) can be followed below.

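Exposure lasted 48 hours, with cells grown in 96-well plates and compounds tested at five concentrations. At the GI50, growth is halved.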 The source made the active and inactive calls. Cut-off read from the data, not from the text of the source: active = GI50 up to about 1.1 µM and inactive = higher. Non-standard residues stand in square brackets, D forms with d. Residues, ends and D or L forms follow the SMILES beside them. *: point of attachment. Bn2Val = CC(C)[C@@H](C(=O)*)N(Cc1ccccc1)Cc1ccccc1; NMeV = CN[C@H](C(=O)O)C(C)C; X32 = COc1ccc(CN*)c(OC)c1; dNMeA = CN[C@H](C)C(=O)O

With `COc1ccc(C2=NN(C(=N)S)C(c3ccccc3)C2)cc1` (stereo not given), the GI50 was 38.2 µM (inactive) in experiment [1]; 31.5 µM (inactive) in experiment [2]; 38.2 µM (inactive) in experiment [3]; 30.5 µM (inactive) in experiment [4]; 48.4 µM (inactive) in experiment [5]; 30.1 µM (inactive) in experiment [6]. The GI50 was 35.7 µM (inactive) in experiment [7]; 41 µM (inactive) in experiment [8]; 27.9 µM (inactive) in [9]; 34.6 µM (inactive) in [10]; 25.5 µM (inactive) in [11]; 30.3 µM (inactive) in [12]. Besides, the GI50 in experiment [13] is 39.7 µM (inactive); in [14] it was 34 µM (inactive); in experiment [15] it was 43.6 µM (inactive); in experiment [16] it was 30.3 µM (inactive); in experiment [17], 29.4 µM (inactive); in experiment [18], 46.6 µM (inactive). Besides, the GI50 in [19] was 38.7 µM (inactive); in [20], 43.4 µM (inactive).

For `CC(CCC=O)CCOCc1ccccc1` (stereo not given), the GI50 in experiment [1] is > 100 µM (inactive); in experiment [2] it was > 95.9 µM (inactive); in experiment [3], > 100 µM (inactive); in [4] it was > 100 µM (inactive); in experiment [5] it was > 100 µM (inactive); in [6] it was > 63.5 µM (inactive). Besides, the GI50 in [7] is > 57.1 µM (inactive); in [8], > 100 µM (inactive); in [9] it was > 100 µM (inactive); in experiment [10] it was > 100 µM (inactive); in experiment [11], 34.8 µM (inactive); in experiment [12] it was > 77.8 µM (inactive). Also, the GI50 is 98.4 µM (inactive) in experiment [13]; > 100 µM (inactive) in experiment [14]; > 100 µM (inactive) in [15]; > 100 µM (inactive) in [16]; > 100 µM (inactive) in experiment [17]; > 100 µM (inactive) in experiment [18]. The GI50 in experiment [19] and in [20] was > 100 µM (inactive) throughout.

On to `COc1ccc2c(c1)CN([C@@H](C)[C@H]1CC[C@H]3[C@@H]4CC[C@H]5C[C@@H](O)CC[C@]5(C)[C@H]4CC[C@]13C)CO2`, for which the GI50 is 3.38 µM (inactive) in [1]; 2.17 µM (inactive) in experiment [2]; 2 µM (inactive) in [3]; 1.74 µM (inactive) in experiment [4]; 3.95 µM (inactive) in experiment [5]; 0.787 µM (active) in experiment [6]. Further, the GI50 in experiment [7] is 1.75 µM (inactive); in experiment [8], 1.57 µM (inactive); in [9], 1.7 µM (inactive); in experiment [10], 7.36 µM (inactive); in experiment [11], 1.95 µM (inactive); in experiment [12], 4.05 µM (inactive). The GI50 in experiment [13] is 2.71 µM (inactive); in [14], 2.44 µM (inactive); in experiment [15] it was 2.26 µM (inactive); in experiment [16], 1.45 µM (inactive); in experiment [17], 1.96 µM (inactive); in experiment [18] it was 1.7 µM (inactive). Moreover, the GI50 is 1.62 µM (inactive) in experiment [19] and 1.81 µM (inactive) in experiment [20].

With `Cc1nc(O)c2c3c(sc2n1)CCCC3`, the GI50 in experiment [1] is > 100 µM (inactive); in experiment [2] it was 36.7 µM (inactive); in experiment [3], > 100 µM (inactive); in experiment [4] it was > 100 µM (inactive); in experiment [5] it was > 100 µM (inactive); in experiment [6], 96.6 µM (inactive). Besides, the GI50 in [7] is > 100 µM (inactive); in experiment [8], > 100 µM (inactive); in experiment [9], 87.7 µM (inactive); in [10] it was > 100 µM (inactive); in experiment [11] it was > 100 µM (inactive); in [12], > 100 µM (inactive). The GI50 in experiment [13], in experiment [14], in experiment [15], in [16], in experiment [17] and in [18] was > 100 µM (inactive) each time. Besides, the GI50 in [19] was 66.2 µM (inactive); in experiment [20] it was 20.4 µM (inactive).

Consider `Nc1ccc(C(=O)CC(N)C(=O)O)cc1O` (stereo not given), for which the GI50 in experiment [1], in experiment [2], in experiment [3], in [4], in experiment [5] and in experiment [6] was > 100 µM (inactive) in each case. The GI50 in experiment [7], in experiment [8], in experiment [9], in [10], in [11] and in experiment [12] was > 100 µM (inactive) each time. Further, the GI50 in experiment [13] was > 100 µM (inactive); in [14], > 100 µM (inactive); in experiment [15] it was > 100 µM (inactive); in [16], > 100 µM (inactive); in experiment [17], > 100 µM (inactive); in [18], 31.9 µM (inactive). Besides, the GI50 in experiment [19] and in experiment [20] was > 100 µM (inactive) each time.

With `COc1ccc(CNC(=O)[C@@H]2CCCN2C(=O)[C@@H](C)N(C)C(=O)[C@H](C(C)C)N(C)C(=O)[C@@H](NC(=O)[C@H](C(C)C)N(Cc2ccccc2)Cc2ccccc2)C(C)C)c(OC)c1` (Bn2Val-V[NMeV][dNMeA]P-X32), the GI50 was 2.56 µM (inactive) in [1]; 3.13 µM (inactive) in experiment [2]; 4.91 µM (inactive) in [3]; 2.74 µM (inactive) in experiment [4]; 3.4 µM (inactive) in [5]; 0.0706 µM (active) in experiment [6]. The GI50 in experiment [7] was 2.36 µM (inactive); in experiment [8], 2.84 µM (inactive); in [9] it was 2.35 µM (inactive); in experiment [10] it was 5.41 µM (inactive); in experiment [11], 3.56 µM (inactive); in experiment [12], 3.41 µM (inactive). Further, the GI50 in experiment [13] was 6.41 µM (inactive); in experiment [14], 2.9 µM (inactive); in [15], 3.71 µM (inactive); in experiment [16] it was 3.34 µM (inactive); in [17], 1.77 µM (inactive); in experiment [18], 10.7 µM (inactive). The results for the GI50 in experiment [19] and in experiment [20] were 2.25 µM (inactive) and 3.86 µM (inactive), respectively.

Take `CC1=NN(C(=O)CC(=O)Nc2cccc(Cl)c2)C(=O)C1/N=N\c1ccc(S(=O)(=O)c2ccc(/N=N/C3C(=O)N(C(=O)CC(=O)Nc4cccc(Cl)c4)N=C3C)cc2)cc1` (stereo not given): the GI50 in experiment [1], in [2], in experiment [3], in experiment [4], in experiment [5] and in experiment [6] was > 100 µM (inactive) each time. The GI50 in [7], in [8], in [9], in [10], in experiment [11] and in experiment [12] was > 100 µM (inactive) each time. Moreover, the GI50 in [13], in experiment [14], in experiment [15], in experiment [16], in experiment [17] and in [18] was > 100 µM (inactive) in each case. For the same molecule, the GI50 in experiment [19] is 29.4 µM (inactive); in experiment [20], > 100 µM (inactive).

Take `O=CNc1ccccc1OCCOc1ccccc1NC=O`: the GI50 in [1], in experiment [2], in [3], in experiment [4], in [5] and in experiment [6] was > 100 µM (inactive) throughout. The GI50 in experiment [7], in experiment [8], in experiment [9], in experiment [10], in experiment [11] and in experiment [12] was > 100 µM (inactive) throughout. The GI50 in experiment [13], in [14], in experiment [15], in experiment [16], in experiment [17] and in experiment [18] was > 100 µM (inactive) in each case. The GI50 in [19] and in experiment [20] was > 100 µM (inactive) each time.

For the molecule `CC(=O)c1c(O)cc(O)c(-c2c(C)cc(O)c3c2C(=O)c2cccc(O)c2C3=O)c1O`, the GI50 is 17.5 µM (inactive) in experiment [1]; 15.4 µM (inactive) in experiment [2]; 14.9 µM (inactive) in experiment [3]; 11.8 µM (inactive) in [4]; 11.6 µM (inactive) in [5]; 19.4 µM (inactive) in experiment [6]. Moreover, the GI50 in experiment [7] is 16.2 µM (inactive); in experiment [8] it was 20.3 µM (inactive); in experiment [9] it was 16 µM (inactive); in experiment [10], 18.3 µM (inactive); in experiment [11], 10 µM (inactive); in [12], 10.8 µM (inactive). In addition, the GI50 in experiment [13] is 14.7 µM (inactive); in experiment [14], 11 µM (inactive); in [15] it was 15.1 µM (inactive); in experiment [16], 13.1 µM (inactive); in [17], 15.9 µM (inactive); in experiment [18] it was 13.1 µM (inactive). Also, the GI50 was 14 µM (inactive) in experiment [19] and 14.5 µM (inactive) in experiment [20].
